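Five concentrations, 48 hours, 96-well plates. GI50: concentration for 50% inhibition of growth. TGI: concentration producing complete growth inhibition.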
Columns and labels:
Assay in all cases: inhibition of tumour cell growth, NCI panel, 48 h
OVCAR-5 ovarian = test system: OVCAR-5 ovarian
SR leukemia = test system: SR leukemia
NCI-H522 lung = test system: NCI-H522 lung
SF-295 CNS = test system: SF-295 CNS
BT-549 breast = test system: BT-549 breast
HT29 colon = test system: HT29 colon
HCT-15 colon = test system: HCT-15 colon
HCT-116 colon = test system: HCT-116 colon
SK-OV-3 ovarian = test system: SK-OV-3 ovarian
EKVX NSCLC = test system: EKVX NSCLC
M14 melanoma = test system: M14 melanoma
RPMI-8226 leukemia = test system: RPMI-8226 leukemia
PC-3 prostate = test system: PC-3 prostate

CCOC(=O)C1=C(c2ccccc2)C12N(Cc1ccccc1)C(=O)C2(c1ccccc1)c1ccccc1 (stereo unspecified)
TGI (OVCAR-5 ovarian): > 100 µM | TGI (SR leukemia): > 100 µM | TGI (NCI-H522 lung): 75.2 µM | TGI (SF-295 CNS): > 100 µM | TGI (BT-549 breast): > 100 µM | TGI (HT29 colon): > 100 µM | TGI (HCT-15 colon): > 100 µM | TGI (HCT-116 colon): > 100 µM | TGI (SK-OV-3 ovarian): > 100 µM | TGI (EKVX NSCLC): > 100 µM | TGI (M14 melanoma): > 100 µM | TGI (RPMI-8226 leukemia): > 100 µM | TGI (PC-3 prostate): 75.5 µM

O=C1c2cc3c(cc2CC1Cc1ccc2c(c1)CCC2)CCC3 (stereo unspecified)
TGI (OVCAR-5 ovarian): > 100 µM | TGI (SR leukemia): 95.1 µM | TGI (NCI-H522 lung): > 100 µM | TGI (SF-295 CNS): > 100 µM | TGI (BT-549 breast): > 100 µM | TGI (HT29 colon): > 100 µM | TGI (HCT-15 colon): > 100 µM | TGI (HCT-116 colon): > 100 µM | TGI (SK-OV-3 ovarian): > 100 µM | TGI (EKVX NSCLC): > 100 µM | TGI (M14 melanoma): > 100 µM | TGI (RPMI-8226 leukemia): > 100 µM | TGI (PC-3 prostate): > 100 µM

COc1cc(-c2nc3cc(Cl)c(Cl)cc3[nH]2)ccc1OCC(=O)N=Nc1c(O)[nH]c2ccc(Cl)cc12
GI50 (SR leukemia): 0.252 µM | TGI (SR leukemia): 1.39 µM | GI50 (NCI-H522 lung): 0.386 µM | TGI (NCI-H522 lung): 2.08 µM | GI50 (HCT-15 colon): > 100 µM | TGI (HCT-15 colon): > 100 µM | GI50 (HCT-116 colon): 0.284 µM | TGI (HCT-116 colon): 1.2 µM | GI50 (SK-OV-3 ovarian): 1.83 µM | TGI (SK-OV-3 ovarian): 4.57 µM | GI50 (EKVX NSCLC): 1.7 µM | TGI (EKVX NSCLC): > 100 µM

N#Cc1ccc(C2Oc3ccc(Cl)cc3C=C2[N+](=O)[O-])cc1 (stereo unspecified)
TGI (OVCAR-5 ovarian): 3.98 µM | TGI (SR leukemia): 1.61 µM | TGI (NCI-H522 lung): 2.92 µM | TGI (SF-295 CNS): 9.15 µM | TGI (BT-549 breast): 1.13 µM | TGI (HT29 colon): 7.89 µM | TGI (HCT-15 colon): 4.12 µM | TGI (HCT-116 colon): 0.987 µM | TGI (SK-OV-3 ovarian): 5.57 µM | TGI (EKVX NSCLC): 3.42 µM | TGI (M14 melanoma): 2.73 µM | TGI (RPMI-8226 leukemia): 1.25 µM | TGI (PC-3 prostate): 3.37 µM

Reference: PubChem BioAssay (NCI)
